Consider four sequences from US7794723B2, “Antigenic peptides derived from telomerase” (GemVax AS, priority 1998, dated 2010).

The test system of series [1] is tumor infiltrating lymphocytes (TILs) obtained from a patient with advanced pancreatic cancer. As to the kind of experiment: Reactivity of tumor infiltrating lymphocytes (TILs), standard proliferation assay. The series is classed as cell-based, human. The conditions noted are these: CD3+, CD4+, CD8− T cell line. An excerpt:
FIGS. 3 and 4 (FIG. 3 and FIG. 4) show the reactivity of tumor infiltrating lymphocytes (TILs) obtained from a patient with advanced pancreatic cancer. The T cells were obtained from a tumor biopsy and were successfully propagated in vitro to establish a T cell line. The T cell line was CD3+, CD4+ and CD8−, and proliferated specifically in response to the telomerase peptides. The results in FIG. 3 show T cells that recognize the peptides with SEQ ID NOs: 2 and 3 when compared to controls with medium alone. The results in FIG. 4 show T cells that recognize the peptide with SEQ ID NO:2. The TILs were expanded by co-culturing with recombinant human interleukin 2 (rIL-2) and tested after 14 days in standard proliferation assay using peptides with SEQ ID NOs: 2, 3, 4 and 7.

Series [2] relates to peripheral blood T cells from a patient with colon cancer. As to the kind of experiment: In vitro stimulation of peripheral blood T cells from a cancer patient, T cell proliferative assay (3H-thymidine). Type of series: cell-based, human. As to conditions: FIG. 2; peptide 30 μg/ml; 10^5 mononuclear cells; cultures without peptide as control. How it is done:
In vitro culture was performed as follows: Triplicates of 105 mononuclear cells were incubated for […] in X-VIVO 10 medium supplemented with 15% pooled heat inactivated human serum in a humidified incubator in 5% CO2. Peptides were present throughout culture at a final concentration of 30 μg/ml in the medium. Cultures without peptide served as control. […] Furthermore, one component of the telomerase specific response in this patient is directed against the peptide with SEQ ID NO:4 described here. […] The figure depicts the results of conventional T cell proliferative assays, where peripheral blood mononuclear cells (10^5) were cultured with peptides as indicated for 7 days in triplicates before harvesting. To measure the proliferative capacity of the cultures, 3H-thymidine (3.7×10^4 Bq/well) was added to the culture overnight before harvesting. Values are given as mean counts per minute (cpm) of the triplicates.

Series [3] deals with hTERT expressing target cells (Jurkat) transfected with HLA-A2 (A2/K^b). The conditions noted are these: FIG. 1; T cells from mice primed with the peptide; target cells pulsed with control peptide (influenza 58-66); different effector to target ratios; 4 hours.
[4] abbreviates: FIG. 3, compared to controls with medium alone.

Where no end group is shown, it is not given here.

For the sequence DGLRPIVNMDYVVGAR [SEQ ID NO:3], the “recognition of peptide by TIL T cells (proliferation)” value in series [1] (setting [4]) is on record as “recognize”.
On to EARPALLTSRLRFIPK [SEQ ID NO:2], for which the “recognition of peptide by TIL T cells (proliferation)” value in series [1] (setting [4]) and in series [1] (FIG. 4) was “recognize” throughout.
Consider “GVPEYGCVVNLRKVVNF (GVPEYGCVVNLRKTVVNF) [SEQ ID NO:4]”, for which the “proliferative response of T cells (3H-thymidine, mean cpm)” value in series [2] is on record as “proliferative response above background values”.
For the sequence ILAKFLHWL [SEQ ID NO:9], the “specific cytotoxicity (killing of HLA-A2 transfected Jurkat cells)” value in series [3] is “Specific cytotoxicity above background was observed at all effector to target ratios”.
